In patent US7553972B2, “Benzamide inhibitors of the P2X7 receptor” (Pfizer, Inc., priority 2003, dated 2009):

These molecules were tested against T1, P2X7 receptor (Homo sapiens, UniProt Q99572) (assay: Inhibition of ATP-stimulated IL-1β release from LPS-activated blood monocytes (P2X7 antagonist activity, ELISA readout)). Settings: monocytes from normal volunteers, 10 ng/ml LPS 2 h, compound 30 min, 2 mM ATP 3 h, IL-1β by ELISA, triplicate wells; read-out: IC50 (inhibit 50% of the stimulation of the release of IL-1β from monocytes by ATP).
T1 construct: endogenous in cells
T1 sequence (Q99572 1-595): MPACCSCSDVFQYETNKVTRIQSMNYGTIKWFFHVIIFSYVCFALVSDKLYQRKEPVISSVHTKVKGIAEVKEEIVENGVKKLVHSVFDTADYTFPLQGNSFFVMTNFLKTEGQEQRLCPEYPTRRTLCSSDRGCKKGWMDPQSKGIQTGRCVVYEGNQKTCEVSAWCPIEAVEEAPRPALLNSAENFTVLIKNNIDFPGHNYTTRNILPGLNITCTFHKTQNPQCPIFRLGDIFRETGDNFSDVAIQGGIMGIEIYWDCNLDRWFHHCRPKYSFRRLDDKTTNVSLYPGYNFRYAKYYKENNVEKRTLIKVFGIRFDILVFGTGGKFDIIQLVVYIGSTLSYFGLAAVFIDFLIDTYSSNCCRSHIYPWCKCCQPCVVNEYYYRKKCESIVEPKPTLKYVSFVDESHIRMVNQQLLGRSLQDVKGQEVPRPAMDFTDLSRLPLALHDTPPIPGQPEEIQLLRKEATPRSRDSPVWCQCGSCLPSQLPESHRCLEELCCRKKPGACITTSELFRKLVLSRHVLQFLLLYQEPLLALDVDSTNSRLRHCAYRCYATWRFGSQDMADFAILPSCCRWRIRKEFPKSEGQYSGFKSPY
Format: cell-based
Protocol: In like manner, the compounds of the invention can be tested for antagonist activity at the P2X7 receptor using the cytokine IL-1β as the readout. Blood collected from normal volunteers in the presence of heparin is fractionated using lymphocyte separation medium obtained from Organon Technica (Westchester, Pa.). […] The resulting cell pellet was suspended in 10 ml of Maintenance Medium and a cell count was performed. In an average experiment, 2×10^5 mononuclear cells are seeded into each well of 96-well plates in a total volume of 0.1 ml. Monocytes are allowed to adhere for 2 hours, after which the supernatants are discarded and the attached cells are rinsed twice and then incubated in Maintenance Medium overnight at 37° C. in a 5% CO2 environment.
(§1) The cultured monocytes can be activated with 10 ng/ml LPS (E. coli serotype 055:B5; Sigma Chemicals, St. Louis, Mo.). […] ATP then is introduced (from a 100 mM stock solution, pH 7) to achieve a final concentration of 2 mM and the plate is incubated at 37° C. for an additional 3 hours. Media were harvested and clarified by centrifugation, and their IL-1[…] content was determined by ELISA (R&D Systems; Minneapolis, Minn.).
Blood was collected from normal volunteers in the presence of heparin, and was fractionated using lymphocyte separation medium obtained from Organon Technica (Westchester, Pa.). […] The resulting cell pellet was suspended in 10 ml of Maintenance Medium and a cell count was performed. Approximately, 2×10^5 mononuclear cells were seeded into each well of 96-well plates in a total volume of 0.1 ml. Monocytes were allowed to adhere for 2 hours, after which the supernatants were discarded and the attached cells were rinsed twice and then incubated in Maintenance Medium overnight at 37° C. in a 5% CO2 environment.
as §1, with “monocytes were” for “monocytes can be”, “then was” for “then is”, “plate was” for “plate is”, “their IL-1β” for “their IL-1[…]”

Row | Compound | IC50
1 | COC[C@H](O)Cn1nc(-c2ccc(Cl)c(C(=O)NCC3(O)CCCCCC3)c2)cc1C (stereo in doubt) [Example 39, 2-Chloro-N-(1-hydroxy-cycloheptylmethyl)-5-[1-(2-hydroxy-3-methoxy-propyl)-5-methyl-1H-pyrazol-3-yl]-benzamide] | 8 nM
2 | Cc1ccc(C2(CNC(=O)c3cc(-c4ccc(C)nc4)ccc3Cl)CCCCC2)cc1 [Example 1, 2-Chloro-5-(6-methyl-pyridin-3-yl)-N-(1-p-tolyl-cyclohexylmethyl)-benzamide] | 29 nM
3 | Cc1ccc(-c2ccc(Cl)c(C(=O)NCC3(O)CCCC(C)(C)C3)c2)nc1 (stereo not shown) [Example 2, 2-Chloro-N-(1-hydroxy-3,3-dimethyl-cyclohexylmethyl)-5-(5-methyl-pyridin-2-yl)-benzamide] | 11 nM
4 | COc1ccc(-c2ccc(Cl)c(C(=O)NCC3(O)CCCCCC3)c2)nn1 [Example 4, 2-Chloro-N-(1-hydroxy-cycloheptylmethyl)-5-(6-methoxy-pyridazin-3-yl)-benzamide] | 280 nM
5 | O=C(NCC1(O)CCCCCC1)c1cc(-c2ccc(=O)[nH]n2)ccc1Cl [Example 5, 2-Chloro-N-(1-hydroxy-cycloheptylmethyl)-5-(6-oxo-1,6-dihydro-pyridazin-3-yl)-benzamide] | 930 nM
6 | COc1ccc(Cn2cc(-c3ccc(Cl)c(C(=O)NCCc4ccccc4Cl)c3)cn2)cc1 [Example 6, 2-Chloro-N-[2-(2-chloro-phenyl)-ethyl]-5-[1-(4-methoxy-benzyl)-1H-pyrazol-4-yl]-benzamide] | 1400 nM
7 | Cc1ccc(-c2ccc(Cl)c(C(=O)NCCc3ccccc3Cl)c2)nc1 [Example 7, 2-Chloro-N-[2-(2-chloro-phenyl)-ethyl]-5-(5-methyl-pyridin-2-yl)-benzamide] | 1660 nM
8 | COc1ccc(-c2ccc(Cl)c(C(=O)NCCc3ccccc3Cl)c2)nn1 [Example 8, 2-Chloro-N-[2-(2-chloro-phenyl)-ethyl]-5-(6-methoxy-pyridazin-3-yl)-benzamide] | 525 nM
9 | O=C(NCCc1ccccc1Cl)c1cc(-c2cn[nH]c2)ccc1Cl [Example 10, 2-Chloro-N-[2-(2-chloro-phenyl)-ethyl]-5-(1H-pyrazol-4-yl)-benzamide] | 800 nM
10 | Cc1cc(-c2ccc(Cl)c(C(=O)NCC3(O)CCCCCC3)c2)on1 [Example 12, 2-Chloro-N-(1-hydroxy-cycloheptylmethyl)-5-(3-methyl-isoxazol-5-yl)-benzamide] | 240 nM
11 | Cc1cc(-c2ccc(Cl)c(C(=O)NCC3(O)CCCC(C)(C)C3)c2)[nH]n1 (stereo not shown) [Example 13, 2-Chloro-N-(1-hydroxy-3,3-dimethyl-cyclohexylmethyl)-5-(5-methyl-2H-pyrazol-3-yl)-benzamide] | 8 nM
12 | Cc1cc(-c2ccc(Cl)c(C(=O)NCC3(O)CCCC(C)(C)C3)c2)on1 (stereo not shown) [Example 14, 2-Chloro-N-(1-hydroxy-3,3-dimethyl-cyclohexylmethyl)-5-(3-methyl-isoxazol-5-yl)-benzamide] | 81 nM
13 | CCc1cc(-c2ccc(Cl)c(C(=O)NCC3(O)CCCCCC3)c2)[nH]n1 [Example 15, 2-Chloro-5-(5-ethyl-2H-pyrazol-3-yl)-N-(1-hydroxy-cycloheptylmethyl)-benzamide] | 23 nM
14 | CCc1cc(-c2ccc(Cl)c(C(=O)NCCc3ccccc3Cl)c2)[nH]n1 [Example 16, 2-Chloro-N-[2-(2-chloro-phenyl)-ethyl]-5-(5-ethyl-2H-pyrazol-3-yl)-benzamide] | 370 nM
15 | Cc1ccc(C2(CNC(=O)c3cc(-c4cc[nH]n4)ccc3Cl)CCCCC2)cc1 [Example 17, 2-Chloro-5-(1H-pyrazol-3-yl)-N-(1-p-tolyl-cyclohexylmethyl)-benzamide] | 18 nM
16 | O=C(NCCc1ccccc1Cl)c1cc(-c2cc[nH]n2)ccc1Cl [Example 18, 2-Chloro-N-[2-(2-chloro-phenyl)-ethyl]-5-(1H-pyrazol-3-yl)-benzamide] | 545 nM

Row | Compound | IC50
17 | O=C(NCC1(O)CCCCCC1)c1cc(-c2cc[nH]n2)ccc1Cl [Example 19, 2-Chloro-N-(1-hydroxy-cycloheptylmethyl)-5-(1H-pyrazol-3-yl)-benzamide] | 180 nM
18 | Cc1cc(-c2ccc(Cl)c(C(=O)NCC3(C#N)CCCCCC3)c2)[nH]n1 [Example 21, 2-Chloro-N-(1-cyano-cycloheptylmethyl)-5-(5-methyl-2H-pyrazol-3-yl)-benzamide] | 46 nM
19 | O=C(NCC1(O)CCCCCC1)c1cc(-c2cc(C3CC3)[nH]n2)ccc1Cl [Example 22, 2-Chloro-5-(5-cyclopropyl-1H-pyrazol-3-yl)-N-(1-hydroxy-cycloheptylmethyl)-benzamide] | 50 nM
20 | O=C(NCC1(O)CCCCCC1)c1cc(-c2cc(C(F)(F)F)n[nH]2)ccc1Cl [Example 23, 2-Chloro-N-(1-hydroxy-cycloheptylmethyl)-5-(5-trifluoromethyl-1H-pyrazol-3-yl)-benzamide] | 200 nM
21 | Cc1cc(-c2ccc(Cl)c(C(=O)NCC3(O)CCCCCC3)c2)nn1CCO [Example 25, 2-Chloro-N-(1-hydroxy-cycloheptylmethyl)-5-[1-(2-hydroxy-ethyl)-5-methyl-1H-pyrazol-3-yl]-benzamide] | 4 nM
22 | O=C(NCC1(O)CCCCCC1)c1cc(-c2ccnn2CCO)ccc1Cl [Example 26, 2-Chloro-N-(1-hydroxy-cycloheptylmethyl)-5-[2-(2-hydroxy-ethyl)-2H-pyrazol-3-yl]-benzamide] | 373 nM
23 | O=C(NCC1(O)CCCCCC1)c1cc(-c2ccn(CCO)n2)ccc1Cl [Example 27, 2-Chloro-N-(1-hydroxy-cycloheptylmethyl)-5-[1-(2-hydroxy-ethyl)-1H-pyrazol-3-yl]-benzamide] | 31 nM
24 | Cn1ccc(-c2ccc(Cl)c(C(=O)NCC3(O)CCCCCC3)c2)n1 [Example 29, 2-Chloro-N-(1-hydroxy-cycloheptylmethyl)-5-(1-methyl-1H-pyrazol-3-yl)-benzamide] | 242 nM
25 | Cc1cc(-c2ccc(Cl)c(C(=O)NCC3(O)CCCCCC3)c2)n(CCO)n1 [Example 31, 2-Chloro-N-(1-hydroxy-cycloheptylmethyl)-5-[2-(2-hydroxy-ethyl)-5-methyl-2H-pyrazol-3-yl]-benzamide] | 70 nM
26 | NCCn1ccc(-c2ccc(Cl)c(C(=O)NCC3(O)CCCCCC3)c2)n1 [Example 32, 5-[1-(2-Amino-ethyl)-1H-pyrazol-3-yl]-2-chloro-N-(1-hydroxy-cycloheptylmethyl)-benzamide] | 38 nM
27 | Cc1cc(-c2ccc(Cl)c(C(=O)NCC3(O)CCCCCC3)c2)nn1CCN [Example 33, 5-[1-(2-Amino-ethyl)-5-methyl-1H-pyrazol-3-yl]-2-chloro-N-(1-hydroxy-cycloheptylmethyl)-benzamide] | 11 nM
28 | N#CCn1ccc(-c2ccc(Cl)c(C(=O)NCC3(O)CCCCCC3)c2)n1 [Example 34, 2-Chloro-5-(1-cyanomethyl-1H-pyrazol-3-yl)-N-(1-hydroxy-cycloheptylmethyl)-benzamide] | 193 nM
29 | NC(=O)Cn1ccc(-c2ccc(Cl)c(C(=O)NCC3(O)CCCCCC3)c2)n1 [Example 35, 5-(1-Carbamoylmethyl-1H-pyrazol-3-yl)-2-chloro-N-(1-hydroxy-cycloheptylmethyl)-benzamide] | 121 nM
30 | Cc1cc(-c2ccc(Cl)c(C(=O)NCC3(O)CCCCCC3)c2)nn1CC#N [Example 36, 2-Chloro-5-(1-cyanomethyl-5-methyl-1H-pyrazol-3-yl)-N-(1-hydroxy-cycloheptylmethyl)-benzamide] | 51 nM
31 | Cc1cc(-c2ccc(Cl)c(C(=O)NCC3(O)CCCCCC3)c2)nn1CC(N)=O [Example 37, 5-(1-Carbamoylmethyl-5-methyl-1H-pyrazol-3-yl)-2-chloro-N-(1-hydroxy-cycloheptylmethyl)-benzamide] | 18 nM
